Legend:
[1] = target: T1, Adenosine receptor A1 (Homo sapiens) (UniProt P30542); assay: Displacement of [3H]R-PIA from human recombinant adenosine A1 receptor expressed in CHO cells at 10 uM after 60 mins by liquid scintillation counting; assay type: cell-based
T1 sequence (whole entry): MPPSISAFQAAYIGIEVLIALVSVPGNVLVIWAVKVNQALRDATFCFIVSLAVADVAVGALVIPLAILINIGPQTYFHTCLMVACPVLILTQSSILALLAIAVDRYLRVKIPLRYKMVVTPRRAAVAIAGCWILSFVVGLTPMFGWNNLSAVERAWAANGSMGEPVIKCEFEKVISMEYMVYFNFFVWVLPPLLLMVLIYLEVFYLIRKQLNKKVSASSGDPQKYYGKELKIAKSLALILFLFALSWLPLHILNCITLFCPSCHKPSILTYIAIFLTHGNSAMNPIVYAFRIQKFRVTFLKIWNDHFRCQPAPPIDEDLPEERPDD

[2] = target: T2, Adenosine receptor A3 (Homo sapiens) (UniProt P0DMS8); assay: Agonist activity at human recombinant adenosine A3 receptor expressed in CHO cells assessed as inhibition of forskolin-stimulated cAMP production at 10 uM incubated for 30 mins prior to forskolin-stimulation measured after 15 mins by enzyme immunoassay relative to NECA; assay type: functional, cell-based
T2 sequence (whole entry): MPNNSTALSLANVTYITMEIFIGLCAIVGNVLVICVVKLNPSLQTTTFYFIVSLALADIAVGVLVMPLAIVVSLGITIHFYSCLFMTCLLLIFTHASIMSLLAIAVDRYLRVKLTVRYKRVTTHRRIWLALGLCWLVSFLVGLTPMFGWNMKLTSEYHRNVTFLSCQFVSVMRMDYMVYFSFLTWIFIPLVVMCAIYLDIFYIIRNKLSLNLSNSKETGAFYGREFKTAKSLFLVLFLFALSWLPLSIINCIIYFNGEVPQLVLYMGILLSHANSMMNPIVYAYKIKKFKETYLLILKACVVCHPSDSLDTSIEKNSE

[3] = target: T3, Adenosine receptor A3 (Homo sapiens, UniProt P0DMS8); assay: Displacement of [3H]I-AB-MECA from human recombinant adenosine A3 receptor expressed in CHO cells after 60 mins by gamma counting; assay type: cell-based
T3 sequence (P0DMS8 whole entry): T2 sequence (whole entry)

[4] = target: Adenosine receptor A2a (Homo sapiens, UniProt P29274); assay: Displacement of [3H]CGS21680 from human recombinant adenosine A2A receptor expressed in HEK293 cells at 10 uM after 60 mins by liquid scintillation counting; assay type: cell-based
Chain of Adenosine receptor A2a (P29274 whole entry): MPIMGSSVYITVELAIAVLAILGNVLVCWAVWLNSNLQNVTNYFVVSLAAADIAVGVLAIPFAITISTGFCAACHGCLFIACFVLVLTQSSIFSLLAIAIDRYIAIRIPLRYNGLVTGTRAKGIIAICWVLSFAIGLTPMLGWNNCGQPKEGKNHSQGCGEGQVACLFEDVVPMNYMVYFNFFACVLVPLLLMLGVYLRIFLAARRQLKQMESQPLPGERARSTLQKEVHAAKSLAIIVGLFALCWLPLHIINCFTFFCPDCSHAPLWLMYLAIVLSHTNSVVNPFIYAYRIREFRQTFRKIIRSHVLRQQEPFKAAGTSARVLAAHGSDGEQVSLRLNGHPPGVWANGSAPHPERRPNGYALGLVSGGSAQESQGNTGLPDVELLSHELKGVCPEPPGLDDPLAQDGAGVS

[5] = target: T4, Adenosine receptor A3 (Mus musculus, UniProt Q61618); assay: Displacement of [125I]I-AB-MECA from mouse adenosine A3 receptor expressed in HEK293 cells after 60 mins by liquid scintillation counting
T4 sequence (Q61618 whole entry): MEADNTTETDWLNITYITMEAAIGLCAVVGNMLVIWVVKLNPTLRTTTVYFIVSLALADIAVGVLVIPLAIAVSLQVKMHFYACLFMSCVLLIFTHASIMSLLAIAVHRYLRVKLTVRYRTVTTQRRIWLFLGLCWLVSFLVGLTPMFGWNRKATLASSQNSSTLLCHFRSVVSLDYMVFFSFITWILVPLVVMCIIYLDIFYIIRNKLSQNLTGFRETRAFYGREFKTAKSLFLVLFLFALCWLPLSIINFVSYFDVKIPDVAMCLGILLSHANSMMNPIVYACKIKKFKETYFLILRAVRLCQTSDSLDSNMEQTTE

[6] = target: T5, Adenosine receptor A1 (Mus musculus, UniProt Q60612); assay: Displacement of [125I]I-AB-MECA from mouse adenosine A1 receptor expressed in HEK293 cells after 60 mins by liquid scintillation counting
T5 sequence (Q60612 whole entry): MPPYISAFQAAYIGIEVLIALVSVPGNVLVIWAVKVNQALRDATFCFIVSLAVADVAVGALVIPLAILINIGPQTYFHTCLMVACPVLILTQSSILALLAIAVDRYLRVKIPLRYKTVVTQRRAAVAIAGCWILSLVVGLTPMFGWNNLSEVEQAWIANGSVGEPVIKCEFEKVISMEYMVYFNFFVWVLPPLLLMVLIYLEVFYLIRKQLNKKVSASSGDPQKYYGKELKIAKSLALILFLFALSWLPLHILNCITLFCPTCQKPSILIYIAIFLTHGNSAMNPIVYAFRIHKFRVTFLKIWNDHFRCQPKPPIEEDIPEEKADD

[7] = target: Adenosine receptor A2a (Mus musculus) (UniProt Q60613); assay: Displacement of [3H]CGS21680 from mouse adenosine A2A receptor expressed in HEK293 cells at 10 uM after 60 mins by liquid scintillation counting
Chain of Adenosine receptor A2a (Mus musculus) (Q60613 whole entry): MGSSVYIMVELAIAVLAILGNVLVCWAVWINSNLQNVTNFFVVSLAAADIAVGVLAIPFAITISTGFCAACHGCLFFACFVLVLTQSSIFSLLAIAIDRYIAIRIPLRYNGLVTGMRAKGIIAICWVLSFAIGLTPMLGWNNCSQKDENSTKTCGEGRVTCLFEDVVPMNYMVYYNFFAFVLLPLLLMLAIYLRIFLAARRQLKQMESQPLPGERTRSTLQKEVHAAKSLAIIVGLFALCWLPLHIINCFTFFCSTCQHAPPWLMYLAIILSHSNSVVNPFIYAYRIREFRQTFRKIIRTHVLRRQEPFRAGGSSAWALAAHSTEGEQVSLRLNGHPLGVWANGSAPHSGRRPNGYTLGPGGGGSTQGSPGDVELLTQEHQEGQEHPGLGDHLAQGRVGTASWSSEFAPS

[8] = target: T6, Adenosine receptor A1 (Homo sapiens, UniProt P30542); assay: Displacement of [3H]R-PIA from human recombinant adenosine A1 receptor expressed in CHO cells after 60 mins by liquid scintillation counting; assay type: cell-based
T6 sequence (P30542 whole entry): T1 sequence (whole entry)

## CNC(=O)[C@@]12C[C@@H]1[C@@H](n1cnc3c(NCc4cccc(Cl)c4)nc(C#Cc4cc5cccc6ccc7cccc4c7c65)nc31)[C@H](O)[C@@H]2O
[1]
  inhibition: 11%
[2]
  Efficacy: 97.1%
[3]
  Ki: 660 nM
[4]
  inhibition: 4%

## CNC(=O)[C@@]12C[C@@H]1[C@@H](n1cnc3c(NCc4cccc(Cl)c4)nc(C#Cc4ccc(N)cc4)nc31)[C@H](O)[C@@H]2O
[5]
  Ki: 0.82 nM
[2]
  Efficacy: 76.6%
[6]
  Ki: 261 nM
[7]
  inhibition: 5%
[8]
  Ki: 1520 nM
[4]
  inhibition: 44%

From ChEMBL document CHEMBL2062514 (J Med Chem, 2012)
